Test results taken from US20050129725A1, “Method of controlling pest and pest control agent” (KURARAY CO., LTD., priority 2002, published 2005).
Where two headings read alike, the source gives them in different places.

How the values were obtained:
[1] = system: adult female Culex pipiens; test: Repellent effect of treated wire net bags (mouse as blood source) on blood sucking by Culex pipiens; assay type: in vivo; details: summary of Experimental Example 1
Method: A 20-mesh soft wire net was cut into 15×16 cm, folded into two, and open two sides (longitudinal and transverse sides) were folded to give a bag. Four of these bags were prepared. Farnesylacetone (mixing ratio:[…]/trans-trans form=15/50/35) was dissolved in ethanol at 0.2 wt % and 1 wt % and one wire net bag each was immersed in one of the obtained solutions for about 10 sec. The bag was taken out from the solution, and air-dried at room temperature for 30 min to give a farnesylacetone treated wire net bag. The wire net bag treated with farnesylacetone 0.2 wt % solution was taken as Example 1, and the wire net bag treated with farnesylacetone 1 wt % solution was taken as Example 2. […] The wire net bags of Examples 1 and 2 and Comparative Example 1 were evaluated in Experimental Example 1 for the repellent effect on adult female Culex pipiens using an untreated wire net bag as a control.
50 to 70 female adult Culex pipiens at 10-15 days after eclosion and having high blood sucking activity were released inside each of four adult raising cages (30×40×30 cm). […] As a blood sucking result, the number of the test Culex pipiens with swollen abdomen was counted at a certain time intervals after the start of the test, which number was divided by the number of test Culex pipiens to calculate a blood sucking rate (%). […]

Coptotermes formosanus = assay type: in vivo; details: for number of Coptotermes formosanus in test section: 30 ants in total; for number of Coptotermes formosanus in control section: untreated half of same schale
Method: Three sets of experiment systems were prepared wherein quartz sand allowed to absorb a suitable amount of water was spread on a 90 mm diameter schale in a thickness of 1 mm, a 5 mm width groove was formed on a diameter line to divide the dish into two, three 8 mm diameter circular filters impregnated with a suitable amount of a solution of farnesylacetone or phytone in acetone and air-dried were placed in one test section, and three untreated circular filters were placed in the control section.
In each experiment system were each released 10 worker ants of Coptotermes formosanus and raised in an incubator at 28° C., humidity 70%. After a certain time, the number of Coptotermes formosanus in the test section and the control section was counted. The repellence rate and mortality were calculated from the following formulas. Repellence rate={1−(number of the ants in the test section/number of the survived ants)}×100 (%) Mortality=number of the dead ants/30×100 (%)

Blattella germanica = test: Box shelter lurking place choice test with coated paper sheets; assay type: in vivo; details: summary of Experimental Example 2
Method: A mixture of farnesylacetone (mixing ratio:cis-cis form/cis-trans form and trans-cis form/trans-trans form=15/50/35) and vitamin E (antioxidant) (weight ratio 99:1) was dissolved in methanol at 0.06 wt % and 0.3 wt %. The obtained solutions were coated on a 0.26 mm thick paper sheet at 167 g/l m^2, and air-dried to evaporate methanol, whereby sheets having a farnesylacetone coating at 0.1 g/m^2 and 0.5 g/m^2 were obtained and used as Example 3 and Example 4, respectively. Both a farnesylacetone coating sheet prepared on the very day and one left open and uncontrolled by hanging in a room at a room temperature of 21-24° C. for 2 weeks, where ventilation rate was 10-15 times per 1 hour, were evaluated in Experimental Examples 2-4 for repellence performance against the larvae of Blattella germanica, Camponotus japonicus and Anthrenus verbasci using untreated paper sheet as a control.
One box shelter (length 8 cm×side 12.5 cm×height 2 cm, made of white corrugated cardboard) having one entrance (width 1 cm×height 2 cm) and one of the test-day-made products of Example 3 and 4, the products left open and uncontrolled for 2 weeks of Example 3 and 4 and a control paper sheet, which was adhered to an interior floor surface, was prepared for each test sample. […]

fleas parasitic in dogs = test: Scratching behaviour of dog raised in sprayed dog kennel; assay type: in vivo; details: kennel sprayed every week with 1% solution in ethanol; observed 30 min every day for one week
Method: (§1) A dog raised in a dog kennel (vaporization area expanding means), the inside of which was sprayed every week with a 1% solution of farnesylacetone in ethanol with a spray container (reservoir means), and a dog raised in a dog kennel, the inside of which was sprayed every week with ethanol alone, were observed and compared for their behaviors for 30 min every day for one week. The dog raised in the farnesylacetone treated dog kennel scratched its body twice a day, but the dog raised in the dog kennel free of farnesylacetone treatment scratched its body 13 times a day. The concentration of farnesylacetone in the dog kennel was not more than 1 μg/L (detection limit). It is assumed that the fleas parasitic in dogs were repelled and decreased by farnesylacetone.

[2] = Concentration of farnesylacetone in the dog kennel; assay type: physicochemical; details: kennel sprayed every week with 1% solution in ethanol; detection limit
Method: as §1

[3] = Measurement of farnesylacetone concentration in the air (gas chromatography, FID); assay type: physicochemical; details: 1 hr
Method: Farnesylacetone (1 mL) was placed in a 50 mL sample bottle, and a large magnetic stirring bar capable of rotating the air as well was placed therein. […] Thereafter, the gas in the sample bottle was taken by 5 mL with a gas tight syringe, and using gas chromatography with an FID detector, the concentration of farnesylacetone was measured by the absolute calibration method.
(§2) Farnesylacetone (1 mL) was placed in a 50 mL sample bottle, and a large magnetic stirring bar capable of rotating the air as well was placed therein The bottle was placed neck-deep in a […] with rotation, and heated for 1 hr to fill the inside of the sample bottle with farnesylacetone vapor. Thereafter, the gas in the sample bottle was taken by 5 mL with a gas tight syringe, and using gas chromatography with an FID detector, the concentration of farnesylacetone was measured by an absolute calibration method. […] Almost simultaneously, the gas (5 mL) in the sample bottle was taken again, a propeller was set in a 10 L beaker, the gas was added into the sealed beaker, the air in the beaker was stirred with the propeller for 10 min to dilute the gas 2,000-fold, whereby gas containing […] farnesylacetone was obtained. […]

[4] = Odor and discomfort of sampled farnesylacetone gas in human
Method: Farnesylacetone (1 mL) was placed in a 50 mL sample bottle, and a large magnetic stirring bar capable of rotating the air as well was placed therein. The bottle was placed neck-deep in an oil bath at 130° C. with rotation, and heated for 1 hr to saturate the inside of the sample bottle with farnesylacetone vapor. Thereafter, the gas in the sample bottle was taken by 5 mL with a gas tight syringe, and using gas chromatography with an FID detector, the concentration of farnesylacetone was measured by the absolute calibration method.
as §2

CCN(CC)C(=O)c1cccc(C)c1 [DEET, N,N-diethyl-m-tolamide, reference compound]
course of repellent effect of treated wire net bag on Culex pipiens [1]: decreases with time

CC(=O)CCCC(C)CCCC(C)CCCC(C)C (stereo not drawn) [phytone]
death (number of the dead ants) (Coptotermes formosanus; concentration 10%, 1 day later): 0 | repellence rate (Coptotermes formosanus; concentration 10%, 1 day later): 63% | number of Coptotermes formosanus in test section (Coptotermes formosanus; concentration 10%, 1 day later): 11 | number of Coptotermes formosanus in control section (Coptotermes formosanus; concentration 10%, 1 day later): 19 | death (number of the dead ants) (Coptotermes formosanus; concentration 50%, 1 day later): 1 | repellence rate (Coptotermes formosanus; concentration 50%, 1 day later): 86% | number of Coptotermes formosanus in test section (Coptotermes formosanus; concentration 50%, 1 day later): 4 | number of Coptotermes formosanus in control section (Coptotermes formosanus; concentration 50%, 1 day later): 25

CC(=O)CC/C=C(\C)CC/C=C(\C)CCC=C(C)C [farnesylacetone]
course of repellent effect of treated wire net bag on Culex pipiens [1]: maintained at a high level even after 18 hr | time for which treated paper sheet maintained Blattella germanica control effect (Blattella germanica): at least 2 weeks | death (number of the dead ants) (Coptotermes formosanus; concentration 1%, 1 day later): 1 | repellence rate (Coptotermes formosanus; concentration 1%, 1 day later): 86% | number of Coptotermes formosanus in test section (Coptotermes formosanus; concentration 1%, 1 day later): 4 | number of Coptotermes formosanus in control section (Coptotermes formosanus; concentration 1%, 1 day later): 25 | death (number of the dead ants) (Coptotermes formosanus; concentration 1%, 4 days later): 1 | repellence rate (Coptotermes formosanus; concentration 1%, 4 days later): 100% | number of Coptotermes formosanus in test section (Coptotermes formosanus; concentration 1%, 4 days later): 0 | number of Coptotermes formosanus in control section (Coptotermes formosanus; concentration 1%, 4 days later): 29 | death (number of the dead ants) (Coptotermes formosanus; concentration 5%, 1 day later): 2 | repellence rate (Coptotermes formosanus; concentration 5%, 1 day later): 100% | number of Coptotermes formosanus in test section (Coptotermes formosanus; concentration 5%, 1 day later): 0 | number of Coptotermes formosanus in control section (Coptotermes formosanus; concentration 5%, 1 day later): 28 | death (number of the dead ants) (Coptotermes formosanus; concentration 5%, 4 days later): 3 | repellence rate (Coptotermes formosanus; concentration 5%, 4 days later): 96% | number of Coptotermes formosanus in test section (Coptotermes formosanus; concentration 5%, 4 days later): 1 | number of Coptotermes formosanus in control section (Coptotermes formosanus; concentration 5%, 4 days later): 26 | dog scratched its body (times a day) (fleas parasitic in dogs): twice a day | concentration of farnesylacetone in the dog kennel [2]: not more than 1 μg/L | concentration of farnesylacetone in the gas ([3]; sample bottle filled with vapor, water bath at 60° C.): 20 µg/L | concentration of farnesylacetone in the gas ([3]; sample bottle saturated with vapor, oil bath at 130° C.): 20,000 μg/L | odor and effect of sampled gas on human ([4]; gas containing 20,000 μg/L): had a strong odor, caused cough when inhaled in a large amount, and provoked uncomfortable feeling in human | odor of sampled gas detected by human ([4]; gas further diluted 10-fold, printed as containing 0.01 μg/L): scarcely had an odor detected by human
